Source: US8710079B2, “Quinoline compounds and their use for treating viral infection” (National Health Research Institutes, priority 2010, dated 2014)
Read-outs that look alike come from different tables or passages of the source.

How the values were obtained:
[1] = system: HIV-1; experiment: microbe, parasite or virus in culture; conditions: Human immunodeficiency virus 1, PBMC
Protocol: Equal amounts of wild-type and mutant viruses were used to infect 5×10^4 peripheral blood mononuclear cells (PBMC) in 1.5 mL medium containing DMSO or various concentrations of a test compound. A half-milliliter of the culture medium was collected from each culture at days 3, 5, and 7. Viral RNA was extracted from the collected culture supernatants and the viral titers (copies/mL) were determined by real-time PCR. The percentage of inhibition was calculated as [100−(VD/VC)]×100%, where VD and VC refer to the virus titers in the presence and absence of the test compound, respectively.

[2] = system: Coxsackie B virus 3; experiment: In vitro Coxsackie Virus B3 neutralization assay, cytopathic effect on RD cells
Protocol: (§1) This assay measured the ability of a test compound to inhibit the cytopathic effect induced by a picornavirus (EV71, Coxsackie Virus B3, or human rhinovirus 2) on RD cells. […] More specifically, 96-well tissue culture plates were seeded with 200 μL of RD cells at a concentration of 3×10^5 cells/mL in DMEM with 10% FBS. The plates were incubated for 24-30 h at 37° C. and were used at about 90% confluency. Virus (100 TCID50) mixed with different concentrations of a test compound was added to the cells and incubated at 37° C. for 1 h. After adsorption, the infected cell plates were overlaid with 50 μL of DMEM plus 5% FBS and 2% DMSO. The plate was wrapped in Parafilm and incubated at 37° C. for 64 h. At the end of incubation, the plates were fixed by the addition of 100 μL of 0.5% glutaraldehyde for 1 h at room temperature. After the removal of glutaraldehyde, the plates were stained with 0.1% crystal violet for 15 min at room temperature. The plates were washed and dried, and the density of the well was measured at 570 nm. The concentration required for a test compound to reduce the virus-induced cytopathic effect (CPE) by 50% relative to the virus control is expressed as IC50.

[3] = system: Enterovirus 71/4643/MP4; experiment: In vitro EV 71 neutralization assay, cytopathic effect on RD cells; conditions: Enterovirus A
Protocol: as §1

[4] = system: Influenza A/TW/355/97 (H1N1); experiment: Anti-influenza neutralization test, various influenza virus strains; format: cell-based
[5] = system: Influenza A/TW/70058/09 (H1N1); experiment: as above; format: cell-based
[6] = system: Human rhinovirus 2; experiment: In vitro human rhinovirus 2 neutralization assay, cytopathic effect on RD cells; conditions: Rhinovirus A
Protocol: as §1

[7] = system: Influenza A/TW/70066/09 (H1N1); experiment: Anti-influenza neutralization test, various influenza virus strains; format: cell-based
[8] = system: Influenza A/TW/147/09 (H1N1); experiment: as above; format: cell-based
[9] = system: Influenza A/WSN/33 (H1N1) virus; experiment: In vitro anti-influenza virus assay (neutralization test), cytopathic effect on MDCK cells; format: cell-based; conditions: 72 h, read-out: IC50 (concentration reducing virus-induced cytopathic effect by 50%)
[10] = 72 h, read-out: Inhibition (%) Day 3
[11] = 120 h, read-out: Inhibition (%) Day 5
[12] = 168 h, read-out: Inhibition (%) Day 7
[13] = Influenza A/WSN/33 (H1N1), MDCK cells
[14] = Influenza A/WSN/33 (H1N1), MDCK cells, lower bound in nM, upper bound in μM

SMILES | IC50 [9, 13] [nM] | IC50 [9, 14] [nM] | also measured
Cc1cn([C@H]2C[C@H](N=[N+]=[N-])[C@@H](CO)O2)c(=O)[nH]c1=O [AZT, zidovudine, reference compound] |  |  | inhibition at 0.04 µM [1, 10]: 30%; inhibition at 0.04 µM [1, 11]: 60%; inhibition at 0.04 µM [1, 12]: 67%
NC12CC3CC(CC(C3)C1)C2 [Amantadine] |  |  | IC50 [2]: > 25 µM; IC50 [3]: > 25 µM; IC50 [4]: 12.6 ± 6.93 µM; IC50 [5]: 0.762 ± 0.28 µM; IC50 [6]: > 25 µM; IC50 [7]: 0.96 ± 0.317 µM; IC50 [8]: 1.47 ± 0.603 µM
Cc1c(-c2cc(C(=O)O)c3cc(F)ccc3n2)cnn1-c1ccccc1 [Compound 3] | 1000 to 5900 |  | 
Cc1c(-c2cc(C(=O)O)c3cc(Cl)ccc3n2)cnn1-c1ccccc1 [Compound 4] |  | 10 to 999 | 
Cc1ccc(-n2ncc(-c3cc(C(=O)O)c4cc(Br)ccc4n3)c2C)c(C)c1 [Compound 5] |  | 10 to 999 | 
Cc1c(-c2cc(C(=O)O)c3cc(Br)ccc3n2)cnn1-c1ccc(F)c(F)c1 [Compound 6] | 1000 to 5900 |  | 
COc1ccc(-n2ncc(-c3cc(C(=O)O)c4cc(Br)ccc4n3)c2C)cc1 [Compound 7] | 1000 to 5900 |  | 
Cc1c(-c2cc(C(=O)O)c3cc(Br)ccc3n2)cnn1-c1ccc(Cl)c(Cl)c1 [Compound 8] | 1000 to 5900 |  | 
Cc1ccc(-n2ncc(-c3cc(C(=O)O)c4cc(Br)ccc4n3)c2C)cc1 [Compound 9] |  | 10 to 999 | 
Cc1c(-c2cc(C(=O)O)c3cc(Br)ccc3n2)cnn1-c1ccc(F)cc1 [Compound 10] |  | 10 to 999 | 
Cc1c(-c2cc(C(=O)O)c3cc(Br)ccc3n2)cnn1-c1cccc(F)c1 [Compound 11] | 1000 to 5900 |  | 
Cc1c(-c2cc(C(=O)O)c3cc(Br)ccc3n2)cnn1-c1ccc(Cl)cc1 [Compound 12] | 1000 to 5900 |  | 
Cc1c(-c2cc(C(=O)O)c3cc(Br)ccc3n2)cnn1-c1ccc(C(C)C)cc1 [Compound 13] |  | 10 to 999 | 
Cc1cc(Cl)ccc1-n1ncc(-c2cc(C(=O)O)c3cc(Br)ccc3n2)c1C [Compound 14] |  | 10 to 999 | inhibition at 10 µM [1, 10]: 20%; inhibition at 0.01 µM [1, 11]: 48%; inhibition at 10 µM [1, 11]: 59%; inhibition at 10 µM [1, 12]: 86%
Cc1cc(C)cc(-n2ncc(-c3cc(C(=O)O)c4cc(Br)ccc4n3)c2C)c1 [Compound 15] |  | 10 to 999 | 
Cc1c(-c2cc(C(=O)O)c3cc(Br)ccc3n2)cnn1-c1ccc([N+](=O)[O-])cc1 [Compound 16] | 1000 to 5900 |  | 
Cc1ccccc1-n1ncc(-c2cc(C(=O)O)c3cc(Br)ccc3n2)c1C [Compound 17] |  | 10 to 999 | 
COc1cccc(-n2ncc(-c3cc(C(=O)O)c4cc(Br)ccc4n3)c2C)c1 [Compound 18] | 1000 to 5900 |  | 
O=C(O)c1cc(-c2cc(-c3ccccc3)no2)nc2ccc(Br)cc12 [Compound 19] | 1000 to 5900 |  | 
Cc1c(-c2cc(C(=O)O)c3cc(Br)ccc3n2)cnn1-c1ccc(Br)cc1 [Compound 20] |  | 10 to 999 | 
Cc1c(-c2cc(C(=O)O)c3cc(Br)ccc3n2)cnn1-c1ccc(F)cc1F [Compound 21] | 1000 to 5900 |  | 
CCCc1cccc(-n2ncc(-c3cc(C(=O)O)c4cc(Br)ccc4n3)c2C)c1 [Compound 22] |  | 10 to 999 | 
Cc1c(-c2cc(C(=O)O)c3cc(Br)ccc3n2)cnn1-c1ccc(C(F)(F)F)cc1 [Compound 23] | 1000 to 5900 |  | 
Cc1c(-c2cc(C(=O)O)c3cc(Br)ccc3n2)cnn1-c1ccccc1F [Compound 24] |  |  | IC50 ([9]; MDCK): 10 to 999 nM
Cc1c(-c2cc(C(=O)O)c3cc(Br)ccc3n2)cnn1-c1cccc(Cl)c1 [Compound 25] |  |  | IC50 ([9]; MDCK): 10 to 999 nM
Cc1cccc(-n2ncc(-c3cc(C(=O)O)c4cc(Br)ccc4n3)c2C)c1 [Compound 26] |  |  | IC50 ([9]; MDCK): 10 to 999 nM
Cc1c(-c2cc(C(=O)O)c3cc(Br)ccc3n2)cnn1-c1ccc(Cl)cc1Cl [Compound 27] |  |  | IC50 ([9]; MDCK): 10 to 999 nM
Cc1c(-c2cc(C(=O)O)c3cc(Br)ccc3n2)cnn1-c1cccc([N+](=O)[O-])c1 [Compound 29] | 6000 to 25000 |  | 

SMILES | IC50 [9, 13] [nM] | IC50 [9, 14] [nM] | also measured
Cc1cccc(-n2ncc(-c3cc(C(=O)O)c4cc(Br)ccc4n3)c2C)c1C [Compound 30] |  | 10 to 999 | 
Cc1ccc(Cl)cc1-n1ncc(-c2cc(C(=O)O)c3cc(Br)ccc3n2)c1C [Compound 31] |  | 10 to 999 | 
Cc1ccc(C)c(-n2ncc(-c3cc(C(=O)O)c4cc(Cl)ccc4n3)c2C)c1 [Compound 33] |  | 10 to 999 | 
Cc1ccc(Cl)cc1-n1ncc(-c2cc(C(=O)O)c3cc(Cl)ccc3n2)c1C [Compound 34] |  | 10 to 999 | 
Cc1cccc(C)c1-n1ncc(-c2cc(C(=O)O)c3cc(Br)ccc3n2)c1C [Compound 36] | 1000 to 5900 |  | 
Cc1cc(C)c(-n2ncc(-c3cc(C(=O)O)c4cc(Br)ccc4n3)c2C)c(C)c1 [Compound 37] | 1000 to 5900 |  | 
CCc1ccccc1-n1ncc(-c2cc(C(=O)O)c3cc(Br)ccc3n2)c1C [Compound 38] | 1000 to 5900 |  | 
Cc1c(-c2cc(C(=O)O)c3cc(Br)ccc3n2)cnn1-c1cc(Cl)ccc1Cl [Compound 39] | 6000 to 25000 |  | 
Cc1c(-c2cc(C(=O)O)c3cc(Br)ccc3n2)cnn1-c1cc(F)ccc1F [Compound 40] | 6000 to 25000 |  | 
Cc1c(-c2cc(C(=O)O)c3cc(Br)ccc3n2)cnn1-c1c(Cl)cccc1Cl [Compound 41] | 6000 to 25000 |  | 
Cc1c(-c2cc(C(=O)O)c3cc(Br)ccc3n2)cnn1-c1c(Cl)cc(Cl)cc1Cl [Compound 42] | 1000 to 5900 |  | 
O=C(O)c1cc(-c2cnn(-c3ccccc3)c2)nc2ccc(Br)cc12 [Compound 43] | 6000 to 25000 |  | 
Cc1nc(-c2ccccc2)sc1-c1cc(C(=O)O)c2cc(Br)ccc2n1 [Compound 46] | 1000 to 5900 |  | 
Cn1c(-c2ccccc2)ccc1-c1cc(C(=O)O)c2cc(Br)ccc2n1 [Compound 47] |  | 10 to 999 | 
Cc1c(-c2cc(C(=O)O)c3cc(Br)ccc3n2)ccn1-c1ccccc1 [Compound 48] | 1000 to 5900 |  | 
Cc1c(-c2cc(C(=O)O)c3cc(Br)ccc3n2)noc1-c1ccccc1 [Compound 49] | 1000 to 5900 |  | 
Cc1ccc(C)c(-n2ncc(-c3cc(C(=O)O)c4cc(F)ccc4n3)c2C)c1 [Compound 50] | 1000 to 5900 |  | 
Cc1c(-c2cc(C(=O)O)c3cc(Br)ccc3n2)ncn1-c1ccccc1 [Compound 51] |  | 10 to 999 | 
Cc1c(-c2cc(C(=O)O)c3cc(Br)ccc3n2)cnn1-c1cc(Cl)cc(Cl)c1 [Compound 57] | 1000 to 5900 |  | 
Cc1ccc(C)c(-n2ncc(-c3cc(C(=O)O)c4cc(Br)cc(Br)c4n3)c2C)c1 [Compound 58] | 1000 to 5900 |  | 
Cc1ccc(C)c(-n2ncc(-c3cc(C(=O)O)c4cc(Br)cc(C)c4n3)c2C)c1 [Compound 59] | 1000 to 5900 |  | 
Cc1ccc(C)c(-n2ncc(-c3cc(C(=O)O)c4cc(I)ccc4n3)c2C)c1 [Compound 60] |  | 10 to 999 | 
Cc1cc(-c2cc(C(=O)O)c3cc(Br)ccc3n2)nn1-c1nc2ccccc2s1 [Compound 73] | 1000 to 5900 |  | 
Cc1cc(C(F)(F)F)cc(-n2nc(-c3cc(C(=O)O)c4cc(Br)ccc4n3)cc2C)n1 [Compound 74] | 1000 to 5900 |  | 
Cc1cc(-c2cc(C(=O)O)c3cc(Br)ccc3n2)nn1-c1ccc2ccccc2n1 [Compound 75] | 1000 to 5900 |  | 
Cc1c(-c2ccccc2)cccc1-c1cc(C(=O)O)c2cc(Br)ccc2n1 [Compound 76] | 1000 to 5900 |  | 
CC(=O)N[C@H]1[C@H]([C@H](O)[C@H](O)CO)OC(C(=O)O)=C[C@@H]1N=C(N)N [Relenza, Zanamivir] |  |  | IC50 [2]: > 25 µM; IC50 [3]: > 25 µM; IC50 [4]: 1.05 ± 0.458 µM; IC50 [5]: 0.86 ± 0.36 µM; IC50 [6]: > 25 µM; IC50 [7]: 0.809 ± 0.15 µM; IC50 [8]: 22.5 ± 3.47 µM
